Experimental findings from ChEMBL document CHEMBL2074553, “Characterization of bile acid transport mediated by multidrug resistance associated protein 2 and bile salt export pump” (Biochim Biophys Acta, 2001) are described below.

In data set [1] the target is T1, Bile salt export pump (Rattus norvegicus, UniProt O70127).
T1 sequence (O70127 whole entry): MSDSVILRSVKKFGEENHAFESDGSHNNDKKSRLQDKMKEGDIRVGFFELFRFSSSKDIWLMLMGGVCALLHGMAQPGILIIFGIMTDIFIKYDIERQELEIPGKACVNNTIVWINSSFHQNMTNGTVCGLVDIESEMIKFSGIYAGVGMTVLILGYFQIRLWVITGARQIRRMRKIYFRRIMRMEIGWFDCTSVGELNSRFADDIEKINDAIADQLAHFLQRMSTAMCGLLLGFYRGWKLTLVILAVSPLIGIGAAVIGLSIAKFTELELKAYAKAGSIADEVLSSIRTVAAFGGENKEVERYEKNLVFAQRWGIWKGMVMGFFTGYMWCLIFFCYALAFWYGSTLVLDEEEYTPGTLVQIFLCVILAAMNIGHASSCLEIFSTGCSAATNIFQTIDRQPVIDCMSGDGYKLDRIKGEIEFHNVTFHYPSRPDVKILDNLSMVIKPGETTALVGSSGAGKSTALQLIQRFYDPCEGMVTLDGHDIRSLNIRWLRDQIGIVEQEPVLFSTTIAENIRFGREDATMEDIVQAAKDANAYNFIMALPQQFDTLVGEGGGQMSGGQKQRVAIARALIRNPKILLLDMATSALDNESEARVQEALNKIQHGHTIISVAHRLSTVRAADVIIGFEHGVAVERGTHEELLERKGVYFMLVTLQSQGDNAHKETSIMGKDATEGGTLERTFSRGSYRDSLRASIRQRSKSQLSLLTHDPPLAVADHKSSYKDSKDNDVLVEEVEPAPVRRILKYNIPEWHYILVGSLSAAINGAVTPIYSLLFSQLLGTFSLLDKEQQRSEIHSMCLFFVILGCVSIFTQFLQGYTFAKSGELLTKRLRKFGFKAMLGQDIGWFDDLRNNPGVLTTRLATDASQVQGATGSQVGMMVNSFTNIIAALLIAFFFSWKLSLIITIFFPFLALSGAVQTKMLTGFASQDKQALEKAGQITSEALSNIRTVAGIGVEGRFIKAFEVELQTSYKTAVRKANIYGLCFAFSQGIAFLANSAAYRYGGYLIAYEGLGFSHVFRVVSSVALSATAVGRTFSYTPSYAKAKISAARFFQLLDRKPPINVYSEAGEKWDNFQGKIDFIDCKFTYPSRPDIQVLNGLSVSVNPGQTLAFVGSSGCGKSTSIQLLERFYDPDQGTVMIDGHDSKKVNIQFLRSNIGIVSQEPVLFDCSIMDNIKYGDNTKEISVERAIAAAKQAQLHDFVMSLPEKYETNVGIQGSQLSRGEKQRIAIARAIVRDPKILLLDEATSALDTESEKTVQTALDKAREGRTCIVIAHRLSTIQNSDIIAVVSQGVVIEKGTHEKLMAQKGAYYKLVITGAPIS
In words: TP_TRANSPORTER: inhibition of Taurocholate uptake (Taurocholate: 1 uM) in membrane vesicles isolated from Bsep-expressing Sf9 cells. The data set is classed as functional, cell membranes, Membrane vesicle.

The target in data set [2] is T1, Bile salt export pump. In words: TP_TRANSPORTER: inhibition of Taurocholate uptake (Taurocholate: 1 uM) in canalicular membrane vesicles from SD rat. The data set is classed as functional, cell membranes, Sprague-Dawley, Canalicular membrane vesicle.
Substrate in data set [3]: C[C@H](CCC(=O)NCCS(=O)(=O)O)C1CC[C@H]2[C@@H]3[C@H](O)C[C@@H]4C[C@H](OS(=O)(=O)O)CC[C@]4(C)[C@H]3CC[C@]12C
In words: (§1) TP_TRANSPORTER: uptake in canalicular membrane vesicles from SD rat. The data set is classed as functional, cell membranes, Srague-Dawley, Liver, Canalicular membrane vesicle.

Substrate in data set [4]: [H][C@]12CC[C@]3([H])[C@]([H])(CC[C@]4(C)C([C@H](C)CCC(=O)NCCS(=O)(=O)O)CC[C@@]34[H])[C@@]1(C)CC[C@@H](OS(=O)(=O)O)C2
The description is as §1. The data set is classed as functional, cell membranes, Srague-Dawley, Liver, Canalicular membrane vesicle.

Substrate in data set [5]: [H][C@]12CC[C@]3([H])[C@]([H])(CC[C@]4(C)C([C@H](C)CCC(=O)NCCS(=O)(=O)O)CC[C@@]34[H])[C@@]1(C)CC[C@@H](OS(=O)(=O)O)C2
Nature of the data set: TP_TRANSPORTER: uptake in membrane vesicles from Mrp2-expressing Sf9 cells. The data set is classed as functional, cell membranes, Membrane vesicle.

Usually IC50 stands for the concentration needed to halve the response being measured. The Km is the concentration of substrate that gives half-maximal velocity.

Where a name gives a salt, the structure may show the parent alone.

As to `C[C@H](CCC(=O)NCCS(=O)(=O)O)C1CC[C@H]2[C@@H]3[C@H](O)C[C@@H]4C[C@H](OS(=O)(=O)O)CC[C@]4(C)[C@H]3CC[C@]12C` (some centres not stated) [TAUROCHENODEOXYCHOLATE SULFATE], the values for the IC50 in data set [1] and in data set [2] were 67.9 µM and 4.6 µM, respectively.
Consider `C[C@H](CCC(=O)NCCS(=O)(=O)O)C1CC[C@H]2[C@@H]3CC[C@@H]4C[C@H](OS(=O)(=O)O)CC[C@]4(C)[C@H]3CC[C@]12C` (some centres not stated), for which the IC50 was found to be 61.9 µM in data set [1] and 1.2 µM in data set [2].

B1: ATP-binding cassette sub-family C member 2 (Rattus norvegicus) (protein)
chain: MDKFCNSTFWDLSLLESPEADLPLCFEQTVLVWIPLGFLWLLAPWQLYSVYRSRTKRSSITKFYLAKQVFVVFLLILAAIDLSLALTEDTGQATVPPVRYTNPILYLCTWLLVLAVQHSRQWCVRKNSWFLSLFWILSVLCGVFQFQTLIRALLKDSKSNMAYSYLFFVSYGFQIVLLILTAFSGPSDSTQTPSVTASFLSSITFSWYDRTVLKGYKHPLTLEDVWDIDEGFKTRSVTSKFEAAMTKDLQKARQAFQRRLQKSQRKPEATLHGLNKKQSQSQDVLVLEEAKKKSEKTTKDYPKSWLIKSLFKTFHVVILKSFILKLIHDLLVFLNPQLLKLLIGFVKSSNSYVWFGYICAILMFAVTLIQSFCLQSYFQHCFVLGMCVRTTVMSSIYKKALTLSNLARKQYTIGETVNLMSVDSQKLMDATNYMQLVWSSVIQITLSIFFLWRELGPSILAGVGVMVLLIPVNGVLATKIRNIQVQNMKNKDKRLKIMNEILSGIKILKYFAWEPSFQEQVQGIRKKELKNLLRFGQLQSLLIFILQITPILVSVVTFSVYVLVDSANVLNAEKAFTSITLFNILRFPLSMLPMVTSSILQASVSVDRLERYLGGDDLDTSAIRRVSNFDKAVKFSEASFTWDPDLEATIQDVNLDIKPGQLVAVVGTVGSGKSSLVSAMLGEMENVHGHITIQGSTAYVPQQSWIQNGTIKDNILFGSEYNEKKYQQVLKACALLPDLEILPGGDMAEIGEKGINLSGGQKQRVSLARAAYQDADIYILDDPLSAVDAHVGKHIFNKVVGPNGLLAGKTRIFVTHGIHFLPQVDEIVVLGKGTILEKGSYRDLLDKKGVFARNWKTFMKHSGPEGEATVNNDSEAEDDDDGLIPTMEEIPEDAASLAMRRENSLRRTLSRSSRSSSRRGKSLKNSLKIKNVNVLKEKEKEVEGQKLIKKEFVETGKVKFSIYLKYLQAVGWWSILFIILFYGLNNVAFIGSNLWLSAWTSDSDNLNGTNNSSSHRDMRIGVFGALGLAQGICLLISTLWSIYACRNASKALHGQLLTNILRAPMRFFDTTPTGRIVNRFSGDISTVDDLLPQTLRSWMMCFFGIAGTLVMICMATPVFAIIIIPLSILYISVQVFYVATSRQLRRLDSVTKSPIYSHFSETVTGLPIIRAFEHQQRFLAWNEKQIDINQKCVFSWITSNRWLAIRLELVGNLVVFCSALLLVIYRKTLTGDVVGFVLSNALNITQTLNWLVRMTSEAETNIVAVERISEYINVENEAPWVTDKRPPADWPRHGEIQFNNYQVRYRPELDLVLKGITCNIKSGEKVGVVGRTGAGKSSLTNCLFRILESAGGQIIIDGIDVASIGLHDLRERLTIIPQDPILFSGSLRMNLDPFNKYSDEEVWRALELAHLRSFVSGLQLGLLSEVTEGGDNLSIGQRQLLCLGRAVLRKSKILVLDEATAAVDLETDSLIQTTIRKEFSQCTVITIAHRLHTIMDSDKIMVLDNGKIVEYGSPEELLSNRGSFYLMAKEAGIENVNHTEL
In the case of B1, the Km in data set [3] was 8.8 µM; in data set [4], 1.5 µM; in data set [5], 3.9 µM.
